Experimental data published in US8932597B2 (priority 2008, dated 2015).

Legend:
HuM2e antibody 23K12 = assay type: binding, human
[1] = tested on: anti-M2 human monoclonal antibody Z3G1; assay type: binding

## 657 (SLLTEVDTPIRNEWGCRCNDSSD; epitope peptide) [compound 657]
HuM2e antibody 23K12
  Signal (peptides that bind to 23K21 and 8I10): 751
[1]
  Signal (peptides that show specific binding to Z3G1): 2095

## 264 (CSLLTEVETCVETPIRNEWGSRSNDC; epitope peptide) [compound 264]
HuM2e antibody 23K12
  Signal (peptides that bind to 23K21 and 8I10): 707
[1]
  Signal (peptides that show specific binding to Z3G1): 2374

## 549 (SLLTEVETFIRNEWGCRCNDSSD; epitope peptide) [compound 549]
HuM2e antibody 23K12
  Signal (peptides that bind to 23K21 and 8I10): 916
[1]
  Signal (peptides that show specific binding to Z3G1): 2301

## 533 (CSLLTEVGSCLCEC; epitope peptide) [compound 533]
HuM2e antibody 23K12
  Signal (peptides that bind to 23K21 and 8I10): 963
[1]
  Signal (peptides that show specific binding to Z3G1): 2625

## 345 (CSLLTEVGSCLTEV; epitope peptide) [compound 345]
HuM2e antibody 23K12
  Signal (peptides that bind to 23K21 and 8I10): 1616
[1]
  Signal (peptides that show specific binding to Z3G1): 2703

## 593 (SLLTEVEIPIRNEWGCRCNDSSD; epitope peptide) [compound 593]
HuM2e antibody 23K12
  Signal (peptides that bind to 23K21 and 8I10): 839
[1]
  Signal (peptides that show specific binding to Z3G1): 2365

## 343 (MSLLTEVGMSLLTEC; epitope peptide) [compound 343]
HuM2e antibody 23K12
  Signal (peptides that bind to 23K21 and 8I10): 1630
[1]
  Signal (peptides that bind to Z3G1): 2831

## 336 (SLLCEVGSLLTEV; epitope peptide) [compound 336]
HuM2e antibody 23K12
  Signal (peptides that bind to 23K21 and 8I10): 1674
[1]
  Signal (peptides that show specific binding to Z3G1): 2475

## 493 (SLLTEVETMIRNEWGCRCNDSSD; epitope peptide) [compound 493]
HuM2e antibody 23K12
  Signal (peptides that bind to 23K21 and 8I10): 1104
[1]
  Signal (peptides that show specific binding to Z3G1): 2320

## 687 (SLLTEVETPCRNEWGCRCNDSSD; epitope peptide) [compound 687]
HuM2e antibody 23K12
  Signal (peptides that bind to 23K21 and 8I10): 724
[1]
  Signal (peptides that show specific binding to Z3G1): 2050

## 613 (SLLTEVETPIRNEWGCRCNHSSD; epitope peptide) [compound 613]
HuM2e antibody 23K12
  Signal (peptides that bind to 23K21 and 8I10): 812
[1]
  Signal (peptides that bind to Z3G1): 2439

## 417 (SLLTEVETPIRNEWGCRCNDVSD; epitope peptide) [compound 417]
HuM2e antibody 23K12
  Signal (peptides that bind to 23K21 and 8I10): 772
[1]
  Signal (peptides that bind to Z3G1): 2389

## 508 (MSLCTEVGCSLLTEV; epitope peptide) [compound 508]
HuM2e antibody 23K12
  Signal (peptides that bind to 23K21 and 8I10): 1049
[1]
  Signal (peptides that bind to Z3G1): 2832

## 572 (SLLTEVETPIRNEKGCRCNDSSD; epitope peptide) [compound 572]
HuM2e antibody 23K12
  Signal (peptides that bind to 23K21 and 8I10): 868
[1]
  Signal (peptides that show specific binding to Z3G1): 2580

## 500 (SCLTEVGSLLTEV; epitope peptide) [compound 500]
HuM2e antibody 23K12
  Signal (peptides that bind to 23K21 and 8I10): 1066
[1]
  Signal (peptides that show specific binding to Z3G1): 1610

## 346 (SLLMEVETPIRNEWGCRCNDSSD; epitope peptide) [compound 346]
HuM2e antibody 23K12
  Signal (peptides that bind to 23K21 and 8I10): 1616
[1]
  Signal (peptides that show specific binding to Z3G1): 2477

## 401 (SLLTEVETPIRNEWGCRCNWSSD; epitope peptide) [compound 401]
HuM2e antibody 23K12
  Signal (peptides that bind to 23K21 and 8I10): 999
[1]
  Signal (peptides that bind to Z3G1): 2556

## 686 (SLLTEVETPIRNEWGCRLNDSSD; epitope peptide) [compound 686]
HuM2e antibody 23K12
  Signal (peptides that bind to 23K21 and 8I10): 728
[1]
  Signal (peptides that show specific binding to Z3G1): 2363

## 538 (LLLTEVETPIRNEWGCRCNDSSD; epitope peptide) [compound 538]
HuM2e antibody 23K12
  Signal (peptides that bind to 23K21 and 8I10): 950
[1]
  Signal (peptides that show specific binding to Z3G1): 1399

## 316 (MSLLTEVGCSLLTEV; epitope peptide) [compound 316]
HuM2e antibody 23K12
  Signal (peptides that bind to 23K21 and 8I10): 1809
[1]
  Signal (peptides that bind to Z3G1): 2650

## 719 (SLLTEVETPIRNEWGCTCNDSSD; epitope peptide) [compound 719]
HuM2e antibody 23K12
  Signal (peptides that bind to 23K21 and 8I10): 700
[1]
  Signal (peptides that show specific binding to Z3G1): 2347

## 648 (SLLTEVETPIRNEWGKRCNDSSD; epitope peptide) [compound 648]
HuM2e antibody 23K12
  Signal (peptides that bind to 23K21 and 8I10): 762
[1]
  Signal (peptides that show specific binding to Z3G1): 2295

## 437 (SLLTEVETPIR; epitope peptide) [compound 437]
HuM2e antibody 23K12
  Signal (peptides that bind to 23K21 and 8I10): 1012
[1]
  Signal (peptides that bind to Z3G1): 2297

## 290 (CSLLTEVGSLLTCV; epitope peptide) [compound 290]
HuM2e antibody 23K12
  Signal (peptides that bind to 23K21 and 8I10): 2142
[1]
  Signal (peptides that show specific binding to Z3G1): 2503

## 477 (SLLTECGSLLCEV; epitope peptide) [compound 477]
HuM2e antibody 23K12
  Signal (peptides that bind to 23K21 and 8I10): 1206
[1]
  Signal (peptides that show specific binding to Z3G1): 2403

## 617 (SLLTEVETPIRNSWGCRCNDSSD; epitope peptide) [compound 617]
HuM2e antibody 23K12
  Signal (peptides that bind to 23K21 and 8I10): 807
[1]
  Signal (peptides that show specific binding to Z3G1): 2300

## 370 (SLLTEVETPIRNEWGERCNDSSD; epitope peptide) [compound 370]
HuM2e antibody 23K12
  Signal (peptides that bind to 23K21 and 8I10): 1474
[1]
  Signal (peptides that show specific binding to Z3G1): 2286

## 659 (SLLTEVETPIRNEWGARCNDSSD; epitope peptide) [compound 659]
HuM2e antibody 23K12
  Signal (peptides that bind to 23K21 and 8I10): 750
[1]
  Signal (peptides that show specific binding to Z3G1): 2396

## 627 (SLLTEVETPIRIEWGCRCNDSSD; epitope peptide) [compound 627]
HuM2e antibody 23K12
  Signal (peptides that bind to 23K21 and 8I10): 789
[1]
  Signal (peptides that show specific binding to Z3G1): 2444

## 614 (SLLTEVETVIRNEWGCRCNDSSD; epitope peptide) [compound 614]
HuM2e antibody 23K12
  Signal (peptides that bind to 23K21 and 8I10): 810
[1]
  Signal (peptides that show specific binding to Z3G1): 2264

## 351 (SLLCEVGSLLTEC; epitope peptide) [compound 351]
HuM2e antibody 23K12
  Signal (peptides that bind to 23K21 and 8I10): 1564
[1]
  Signal (peptides that show specific binding to Z3G1): 2438

## 712 (SLLTEVETPIRNDWGCRCNDSSD; epitope peptide) [compound 712]
HuM2e antibody 23K12
  Signal (peptides that bind to 23K21 and 8I10): 706
[1]
  Signal (peptides that show specific binding to Z3G1): 2324

## 678 (SLLTEVETPIRSEWGCRCNDSSD; epitope peptide) [compound 678]
HuM2e antibody 23K12
  Signal (peptides that bind to 23K21 and 8I10): 730
[1]
  Signal (peptides that show specific binding to Z3G1): 2322

## 520 (VLLTEVETPIRNEWGCRCNDSSD; epitope peptide) [compound 520]
HuM2e antibody 23K12
  Signal (peptides that bind to 23K21 and 8I10): 1014
[1]
  Signal (peptides that show specific binding to Z3G1): 1758

## 311 (SLLTEVGCLLTEV; epitope peptide) [compound 311]
HuM2e antibody 23K12
  Signal (peptides that bind to 23K21 and 8I10): 1859
[1]
  Signal (peptides that show specific binding to Z3G1): 1924

## 635 (SLLTEVEAPIRNEWGCRCNDSSD; epitope peptide) [compound 635]
HuM2e antibody 23K12
  Signal (peptides that bind to 23K21 and 8I10): 769
[1]
  Signal (peptides that show specific binding to Z3G1): 2325

## 363 (MSLLTECGCSLLTEV; epitope peptide) [compound 363]
HuM2e antibody 23K12
  Signal (peptides that bind to 23K21 and 8I10): 1500
[1]
  Signal (peptides that bind to Z3G1): 1235

## 551 (SLLTEVATPIRNEWGCRCNDSSD; epitope peptide) [compound 551]
HuM2e antibody 23K12
  Signal (peptides that bind to 23K21 and 8I10): 914
[1]
  Signal (peptides that show specific binding to Z3G1): 2093

## 381 (SLLQEVETPIRNEWGCRCNDSSD; epitope peptide) [compound 381]
HuM2e antibody 23K12
  Signal (peptides that bind to 23K21 and 8I10): 1399
[1]
  Signal (peptides that show specific binding to Z3G1): 2432

## 579 (SLLTEVETPIRNEWGCRWNDSSD; epitope peptide) [compound 579]
HuM2e antibody 23K12
  Signal (peptides that bind to 23K21 and 8I10): 859
[1]
  Signal (peptides that bind to Z3G1): 2364

## 562 (SLLTEVETPIRWEWGCRCNDSSD; epitope peptide) [compound 562]
HuM2e antibody 23K12
  Signal (peptides that bind to 23K21 and 8I10): 890
[1]
  Signal (peptides that show specific binding to Z3G1): 2302

## 456 (CSLLTECGMSLLCEV; epitope peptide) [compound 456]
HuM2e antibody 23K12
  Signal (peptides that bind to 23K21 and 8I10): 1294
[1]
  Signal (peptides that bind to Z3G1): 1640

## 449 (SLNTEVETPIRNEWGCRCNDSSD; epitope peptide) [compound 449]
HuM2e antibody 23K12
  Signal (peptides that bind to 23K21 and 8I10): 1333
[1]
  Signal (peptides that show specific binding to Z3G1): 1908

## 720 (SLLTEVETPIINEWGCRCNDSSD; epitope peptide) [compound 720]
HuM2e antibody 23K12
  Signal (peptides that bind to 23K21 and 8I10): 699
[1]
  Signal (peptides that show specific binding to Z3G1): 2262

## 457 (SLLTEVETPMRNEWGCRCNDSSD; epitope peptide) [compound 457]
HuM2e antibody 23K12
  Signal (peptides that bind to 23K21 and 8I10): 1281
[1]
  Signal (peptides that show specific binding to Z3G1): 2297

## 623 (SLLTEVETCIRNEWGCRCNDSSD; epitope peptide) [compound 623]
HuM2e antibody 23K12
  Signal (peptides that bind to 23K21 and 8I10): 800
[1]
  Signal (peptides that show specific binding to Z3G1): 1992

## 293 (CSLLTEVGMSLLTEV; epitope peptide) [compound 293]
HuM2e antibody 23K12
  Signal (peptides that bind to 23K21 and 8I10): 2039
[1]
  Signal (peptides that bind to Z3G1): 2827

## 528 (MSLLTCVGCSLLTEV; epitope peptide) [compound 528]
HuM2e antibody 23K12
  Signal (peptides that bind to 23K21 and 8I10): 978
[1]
  Signal (peptides that bind to Z3G1): 2467

## 341 (CSLLTEVCSLLTEC; epitope peptide) [compound 341]
HuM2e antibody 23K12
  Signal (peptides that bind to 23K21 and 8I10): 1644
[1]
  Signal (peptides that show specific binding to Z3G1): 1122

## 563 (SLLTEVETPIRNEWGGRCNDSSD; epitope peptide) [compound 563]
HuM2e antibody 23K12
  Signal (peptides that bind to 23K21 and 8I10): 887
[1]
  Signal (peptides that show specific binding to Z3G1): 2270

## 301 (SLLCEVGCSLLTEC; epitope sequence) [compound 301]
HuM2e antibody 23K12
  Signal (peptides that bind to 23K21 and 8I10): 1959
[1]
  Signal (peptides that show specific binding to Z3G1): 2637

## 250 (CSLLTEVETCTEVETPIRNEWGSRSC; epitope peptide) [compound 250]
HuM2e antibody 23K12
  Signal (peptides that bind to 23K21 and 8I10): 786
[1]
  Signal (peptides that show specific binding to Z3G1): 2474

## 607 (SLLTEVESPIRNEWGCRCNDSSD; epitope peptide) [compound 607]
HuM2e antibody 23K12
  Signal (peptides that bind to 23K21 and 8I10): 817
[1]
  Signal (peptides that show specific binding to Z3G1): 2156

## 588 (SLLTEVETPIRNEWGCRCNCSSD; epitope peptide) [compound 588]
HuM2e antibody 23K12
  Signal (peptides that bind to 23K21 and 8I10): 848
[1]
  Signal (peptides that bind to Z3G1): 2505

## 570 (MCLLTEVGCSLLTEV; epitope peptide) [compound 570]
HuM2e antibody 23K12
  Signal (peptides that bind to 23K21 and 8I10): 875
[1]
  Signal (peptides that bind to Z3G1): 2717

## 663 (MCLCTCVGMSLLTEV; epitope peptide) [compound 663]
HuM2e antibody 23K12
  Signal (peptides that bind to 23K21 and 8I10): 746
[1]
  Signal (peptides that bind to Z3G1): 2509

## 433 (SLLTEVETPIRNEWGCRCNDSWD; epitope peptide) [compound 433]
HuM2e antibody 23K12
  Signal (peptides that bind to 23K21 and 8I10): 971
[1]
  Signal (peptides that bind to Z3G1): 2477
